In patent US20160279187A1, “CALPAIN INHIBITORS FOR IBD AND COLORECTAL CANCER TREATMENT” (UNIVERSITY OF HAWAII, priority 2013, published 2016):
Where a SMILES comes first, the peptide text is derived from it. The star is where a group is joined. Cbz = O=C(OCc1ccccc1)*; CH2F = FC*

What was measured:
[1] = tested on: AOM/DSS induced colitis/CAC; assay: AOM/DSS induced colitis/CAC model; format: in vivo, C57BL/6J mice; details: for CAC pathology (blinded 4-point histological score) / total tumor volume (in words): day 63, vs vehicle control
Method: A mice colony generated from C57BL/6J mice (Jackson Laboratories) was maintained in the University of Hawaii vivarium. The mouse AOM/DSS induced colitis/CAC model was adapted from a previously described protocol (Fenouille, N. et al. J. Pathol. 227, 118-129, 2012). In brief, 8-10 wk old male mice were injected with AOM (A5486, Sigma) (12 mg/kg) on day 0 and were then treated with three 5 day cycles of 2% DSS (CAS#9011-18-1; MP Biomedicals, Santa Ana, Calif.) in drinking water alternated with regular water over 63 days. Mice in the intervention group were interperitonal injected 5 days per week with 0.75 mg/kg calpain-2 inhibitor (Calpain Inhibitor IV, zLLY-CH2F; Millipore EMD part number 208724) beginning on day 8 and then throughout the entire protocol. Control mice were injected with AOM on day 0 and received regular drinking water throughout the protocol. All animal protocols were approved by the University of Hawaii Institutional Animal Care and Use Committee.
(§1) Bone marrow derived macrophages (BMDM) were prepared as previously described by methods known to those skilled in the art. On day 5 of culture, 2×10^6 BMDM were seeded in 6-well plates and the following day were primed for 18 h with TNFα (20 ng/mL), followed by 1 h stimulation with E. faecalis (1 μg/mL; ATCC). Stimulation with E. faecalis was conducted in the presence of the zLLY-CH2F calpain-2 inhibitor (20 μg/mL) or DMSO as a control. Media was removed from treated BMDM, centrifuged at 300×g for 5 min and supernatent analyzed using the Cytometric Bead Array Mouse Inflammation Kit (BD Biosciences, San Jose, Calif.). Cytokine data were analyzed using Flowjo software (Ashland, Oreg.) and GraphPad Prism version 4.0 (GraphPad, La Jolla, Calif.). Cell pellets were lysed and analyzed for IκB and NFκB by Western blot as previously described (Miyazaki, T. et al. Journal of Atherosclerosis and Thrombosis 20, 228-237, 2013). In other experiments, mouse CT-26.WT and human HT-29 colon cancer cells were plated in 96-well plates at 10^3 cells/well with 20 μg/mL inhibitor or DMSO, followed by analyses for IκB and NFκB by Western blot as described above for BMDM. For proliferation assays, fresh media with 20 μg/mL inhibitor or DMSO were added every 2 d. Each day 4 wells were quantified using Celltiter MTS reagent (Promega) and the resulting signal was used to generate a proliferation curve. Calpain activity was measured using a Calpain activity assay kit (BioVision, Inc., Milpitas, Calif.) as previously described. Colons were harvested on day 4 and calpain activity measured. Enzyme-linked immunosorbant assay (ELISA) analyses of cecum hemoglobin has been previously described (Miyazaki, T. et al. Journal of Atherosclerosis and Thrombosis 20, 228-237, 2013).
On day 63, colons were dissected, cut longitudinally, and then were spread out on clear plastic. The colons were washed with PBS using transfer pipettes and images captured using an Infinity 2 microscope mounted camera (Lumenara, Madrid, Spain) in line with a Stemi 2000-C dissecting scope (Zeiss, Jena, Germany). Separate images were assembled into continuous colon images using Photoshop software (Adobe Systems Inc.). For histology, colon tissues were washed with PBS and fixed in 10% buffered formalin. Standard H&E staining of paraffin-embedded tissue samples was conducted as previously described (Leloup, L. & Wells, A., Expert Opinion on Therapeutic Targets 15, 309-323, 2011). Five H&E stained sections from each mouse were blindly scored for colitis pathology as previously described (Liu, T., Mendes, D. E. & Berkman, C. E. Int. J. Oncol. 44, 467-472, 2014). […]

[2] = tested on: IκB / NFκB in HT-29 cells; assay: IκB and nuclear NFκB western blot, HT-29; format: cell-based, human; details: HT-29, vs DMSO
Method: as §1, with “In other experiments, mouse CT-26.WT and human HT-29 colon cancer cells were plated in 96-well plates at 10^3 cells/well with 20 μg/mL inhibitor or DMSO, followed by analyses for IκB and NFκB by Western blot as described above for BMDM. For proliferation assays, fresh media with 20 μg/mL inhibitor or DMSO were added every 2 d.” left out, “Enzyme-linked immunosorbant assay (ELISA) analyses of cecum hemoglobin has been previously described (Miyazaki, T. et al. Journal of Atherosclerosis and Thrombosis 20, 228-237, 2013).” left out

[3] = tested on: Akt phosphorylation / FAK cleavage in macrophages; assay: other m-calpain regulated pathways in macrophages (Akt, FAK); format: cell-based

**Q.** How did the “weight recovery after each administration of DSS” value ([1]; 0.75 mg/kg i.p. from day 8, vs vehicle control) turn out when `CC(C)C[C@H](NC(=O)OCc1ccccc1)C(=O)N[C@@H](CC(C)C)C(=O)N[C@@H](Cc1ccc(O)cc1)C(=O)CF` [zLLY-CH2F, Z-LLY-CH2F] (Cbz-Leu-Leu-Tyr-CH2F) was run?
**A.** The value was “significant increase”.

**Q.** And the “average number of tumors/mouse” value ([1]; day 63)?
**A.** Its value is 2 tumors/mouse.

**Q.** What about the “hemoglobin in cecums by ELISA (bloody diarrhea)” value ([1]; day 63, 0.75 mg/kg i.p., vs vehicle control) of the same compound?
**A.** The value was “significantly lower”.

**Q.** What about the “total tumor volume reduced by” value ([1]; day 63, i.p. 5 days on/2 days off from day 8, vs vehicle control) of the same compound?
**A.** The value was 70%.

**Q.** And the “CAC pathology (blinded 4-point histological score)” value [1]?
**A.** Its value is “significantly lower”.

**Q.** What about the “total tumor volume (in words)” value [1] of the same compound?
**A.** The value was “significantly lower”.

**Q.** And the “CAC pathology (blinded 4-point histological score)” value ([1]; listed as calpain-2 inhibitor)?
**A.** The value was “significantly alleviated”.

**Q.** What about the “total tumor volume (in words)” value ([1]; listed as calpain-2 inhibitor) of the same compound?
**A.** The value was “significant reduction”.

**Q.** What about the “total tumor volume (in words)” value ([1]; listed as m-calpain inhibitor) of the same compound?
**A.** Its value is “very significant tumor reduction”.

**Q.** And the “colitis pathology and inflammatory infiltration (histology)” value ([1]; day 63 colon, vs vehicle control)?
**A.** Its value is “significant decrease”.

**Q.** And the IκB degradation [2]?
**A.** The IκB degradation was “reduced”.

**Q.** And the NFκB nuclear localization [2]?
**A.** The NFκB nuclear localization was “reduced”.

**Q.** What about the FAK cleavage [3] of the same compound?
**A.** The FAK cleavage was “major effect”.

**Q.** What about the “phosphorylation of Akt” value [3] of the same compound?
**A.** The value was “inhibited”.
